Tests used:
[1] = target: Multidrug resistance-associated protein 1 (Homo sapiens, UniProt P33527); assay: TP_TRANSPORTER: decrease in intracellular accumulation in HL60 and HL60/ADM cells; type: functional, cell-based
[2] = target: P-glycoprotein 1 and 3 (MDR1a/MDR1b) (Mus musculus, UniProt P21447+P06795); assay: TP_TRANSPORTER: increase in brain concentration in mdr1a/1b(-/-) mouse; type: functional, organism-based; details: in vivo

Sequence of Multidrug resistance-associated protein 1 (P33527 whole entry): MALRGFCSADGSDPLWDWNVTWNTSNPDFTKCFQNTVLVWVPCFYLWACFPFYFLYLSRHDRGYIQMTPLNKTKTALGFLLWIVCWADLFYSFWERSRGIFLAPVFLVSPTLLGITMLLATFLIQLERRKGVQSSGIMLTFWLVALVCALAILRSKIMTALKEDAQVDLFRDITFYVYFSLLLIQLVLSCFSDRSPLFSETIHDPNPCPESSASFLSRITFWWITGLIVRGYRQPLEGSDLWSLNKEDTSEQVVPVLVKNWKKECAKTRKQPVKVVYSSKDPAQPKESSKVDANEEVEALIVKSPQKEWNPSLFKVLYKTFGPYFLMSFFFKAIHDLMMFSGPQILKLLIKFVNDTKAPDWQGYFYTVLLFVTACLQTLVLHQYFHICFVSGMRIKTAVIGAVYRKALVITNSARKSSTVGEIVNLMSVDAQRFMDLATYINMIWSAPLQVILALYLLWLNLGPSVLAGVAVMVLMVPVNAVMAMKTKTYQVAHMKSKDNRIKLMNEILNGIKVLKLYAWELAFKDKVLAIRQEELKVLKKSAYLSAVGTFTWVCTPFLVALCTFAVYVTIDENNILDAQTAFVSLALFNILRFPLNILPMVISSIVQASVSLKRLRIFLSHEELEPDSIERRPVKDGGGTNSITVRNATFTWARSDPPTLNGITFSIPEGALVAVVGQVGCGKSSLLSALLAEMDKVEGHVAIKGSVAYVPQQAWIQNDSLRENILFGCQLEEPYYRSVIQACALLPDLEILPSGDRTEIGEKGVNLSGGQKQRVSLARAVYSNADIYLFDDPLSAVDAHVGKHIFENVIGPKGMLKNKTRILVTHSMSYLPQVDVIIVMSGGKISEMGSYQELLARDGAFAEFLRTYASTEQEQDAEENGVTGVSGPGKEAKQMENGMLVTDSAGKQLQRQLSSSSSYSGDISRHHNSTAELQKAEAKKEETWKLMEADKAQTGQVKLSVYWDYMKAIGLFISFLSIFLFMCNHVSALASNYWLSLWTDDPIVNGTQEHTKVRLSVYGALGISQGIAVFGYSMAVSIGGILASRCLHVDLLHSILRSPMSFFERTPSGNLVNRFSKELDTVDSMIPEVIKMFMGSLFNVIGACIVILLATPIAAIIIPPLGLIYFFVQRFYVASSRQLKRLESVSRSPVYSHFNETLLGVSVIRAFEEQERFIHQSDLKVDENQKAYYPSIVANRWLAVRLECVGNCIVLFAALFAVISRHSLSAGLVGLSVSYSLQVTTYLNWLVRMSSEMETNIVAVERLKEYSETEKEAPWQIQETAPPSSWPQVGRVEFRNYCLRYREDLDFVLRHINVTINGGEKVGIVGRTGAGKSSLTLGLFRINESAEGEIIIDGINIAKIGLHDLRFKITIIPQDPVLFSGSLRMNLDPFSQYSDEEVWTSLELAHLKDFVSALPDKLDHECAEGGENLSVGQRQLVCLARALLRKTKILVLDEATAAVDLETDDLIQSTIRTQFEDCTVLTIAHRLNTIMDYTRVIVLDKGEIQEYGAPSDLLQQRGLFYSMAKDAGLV

| Activity [1] | Activity [2] | Structure (SMILES) |
| --- | --- | --- |
| substrate [+] |  | Cc1c(F)c(N2CCNC(C)C2)cc2c1c(=O)c(C(=O)O)cn2C1CC1 (configuration not stated) [GREPAFLOXACIN] |
|  | substrate [+] | C[C@@H]1CN(c2c(F)c(N)c3c(=O)c(C(=O)O)cn(C4CC4)c3c2F)C[C@H](C)N1 [SPARFLOXACIN] |
